35 molecules from PMC5863483, “Low HLA binding of diabetes-associated CD8+ T-cell epitopes is increased by post translational modifications” (BMC Immunology, 2018) can be followed below.

Read-outs that look alike come from different tables or passages of the source. Where a SMILES comes first, the peptide text is derived from it. Where no end group is shown, it is not given here. [ ]: non-standard residue; d: D form. Cya = N[C@@H](CS(=O)(=O)O)C(=O)O; Cit = NC(=O)NCCC[C@H](N)C(=O)O

One assay addresses HLA-A*11:01 (Homo sapiens, UniProt P04439, A114D/D185E/E176A/F33Y/L180Q/S129P/T187R). The experiment in a line: HLA-peptide competition binding assay, A*11:01. The settings on record: read-out: IC50 nM, target assay A*11:01.
The next assay concerns the target HLA-A*01:01 (Homo sapiens, UniProt P04439, A114D/A174V/A182V/D101N/D185E/E176A/E190D/L180R/Q94H/R68K/S129P/T187R/V100A/V91M/W191G). The experiment in a line: HLA-peptide competition binding assay, A*01:01. The settings on record: read-out: IC50 nM, target assay A*01:01.
In a further assay the target is HLA-B*08:01 (Homo sapiens, UniProt P01889, A93T/A95T/D138N/E176V/E187T/K202T/Q94N/R180D/S35A/V36M/Y33D/Y91F). The experiment in a line: biochemical. As for the experimental part: The 138 peptides were tested for their capacity to bind their respective HLA class I restricting allele(s) in classical competition assays based on the inhibition of the binding of high affinity radiolabeled ligands to purified major histocompatibility (MHC) molecules, as described in the Methods. In instances where the precise restriction was not available, binding to the most common representative subtype from the same allele family was assayed (e.g., A*02:01 for A02; B*07:02 for B7; A*03:01 for A03, etc.). For epitopes reported to be restricted by multiple alleles, each restriction is shown separately.
Peptide-MHC affinities were measured using classical competition assays based on the inhibition of binding of a high affinity radiolabeled ligand to purified HLA class I molecules, as previously described. Briefly, 0.1–1 nM of radiolabeled peptide is co-incubated at room temperature with purified MHC in the presence of a cocktail of protease inhibitors. Following a two-day incubation, MHC bound radioactivity is determined by capturing MHC/peptide complexes on W6/32 (anti-HLA class I) mAb coated Lumitrac 600 plates (Greiner Bio-one, Frickenhausen, Germany), and bound cpm measured using the TopCount (Packard Instrument Co., Meriden, CT) microscintillation counter. […] Under the conditions utilized, where [label] < [MHC] and IC50 ≥ [MHC], measured IC50 values are reasonable approximations of true Kd. Each competitor peptide is tested at six different concentrations covering a 100,000-fold range, and in three or more independent experiments. As a positive control, the unlabeled version of the radiolabeled probe is also tested in each experiment.

The target of another assay is HLA-A*02:01 (Homo sapiens, UniProt P04439, D140Y/D185E/D98H/E176V/E277Q/G131W/G231S/I119V/I121R/I166T/I218V/L300P/L318F/N151K/N90K/P208A/P217A/Q86G/Q94H/R138H/R169H/T345S). The experiment in a line: HLA-peptide competition binding assay, A*02:01.
A further assay concerns the target HLA-B*18:01 (Homo sapiens, UniProt P01889, A329T/A93T/A95T/C349S/D201E/D54G/D98Y/E176V/E187T/E204Q/E69T/K202T/Q94N/R155S/R180L/S121R/V306I/Y140S/Y195H/Y33H/Y91S). The experiment in a line: HLA-peptide competition binding assay, B*18:01. The settings on record: read-out: IC50 nM, target assay B*18:01.
The target in a further assay is HLA-A*24:02 (Homo sapiens, UniProt P04439, D101N/D140Y/D185E/E176V/E190D/F33S/G103R/G107R/I119L/I121M/I306V/K335N/L105A/L180Q/L300P/N151K/N90K/Q86E/Q94H/R106L/R138H/R89G/T104I/T345S/V100E/W191G/Y123F). The experiment in a line: HLA-peptide competition binding assay, A*24:02. The settings on record: read-out: IC50 nM, target assay A*24:02.
The target of the next assay is HLA-B*51:01 (Homo sapiens, UniProt P01889, A329T/A93T/A95T/C349S/D138N/D201E/D98Y/E187L/E204Q/E69T/G107R/I218V/K202T/L105A/L119W/N104I/Q94N/R106L/R155S/R180L/S101N/S121T/S35A/S48A/V306I/V36M/Y195H/Y91F). The experiment in a line: HLA-peptide competition binding assay, B*51:01. Conditions: read-out: IC50 nM, target assay B*51:01.
The target of a further assay is HLA-B*35:01 (Homo sapiens, UniProt P01889, A329T/A93T/A95T/C349S/D201E/D98Y/E176V/E187L/E204Q/E69T/I218V/K202T/L119I/Q94N/R155S/R180L/S121R/S35A/S48A/T118I/V127L/V306I/V36M/Y140S/Y91F). The experiment in a line: HLA-peptide competition binding assay, B*35:01. Conditions: read-out: IC50 nM, target assay B*35:01.
The next assay has as its target HLA-B*07:02 (Homo sapiens, UniProt P01889). The experiment in a line: HLA-peptide competition binding assay, B*07:02. Conditions: read-out: IC50 nM, target assay B*07:02.
For a further assay, the target named is HLA-A*03:01 (Homo sapiens, UniProt P04439). The experiment in a line: HLA-peptide competition binding assay, A*03:01.
[1] abbreviates: read-out: IC50 nM, target assay A*02:01.
Setting [2] is: unmodified (WT) insulin peptide, competition binding assay, a dash indicates IC50 >40,000 nM, read-out: A*02:01 binding (IC50 nM) WT.
Where [3] appears, read: read-out: A*02:01 binding (IC50 nM) WT.
The mark [4] stands for this setting: read-out: IC50 nM, target assay A*03:01.
The mark [5] stands for this setting: post-translationally modified insulin peptide, competition binding assay, a dash indicates IC50 >40,000 nM, read-out: A*02:01 binding (IC50 nM) Modified.

Take MFPEVKEKG: the IC50 at HLA-A*11:01 is over 40000 nM.

Regarding VCGERGFFYT, the IC50 was over 40000 nM on HLA-A*01:01; over 40 µM on HLA-B*08:01; over 40000 nM on HLA-A*02:01 (setting [1]); over 40000 nM at HLA-A*02:01 (setting [2]); 626 nM at HLA-B*18:01.

RLLPLLALL [reference compound]: the IC50 at HLA-A*24:02 amounted to 10200 nM; on HLA-A*02:01 (setting [1]), 145 nM.

For the molecule ALWMRLLPL [reference compound], the figures for the IC50 on HLA-B*08:01 and on HLA-A*02:01 (setting [1]) were 0.107 µM and 218 nM, respectively.

Regarding LPLLALLAL [LPLLALLAL], the IC50 was 1160 nM on HLA-B*51:01, 12300 nM at HLA-B*35:01 and 610 nM on HLA-B*07:02.

`CC(C)C[C@H](NC(=O)[C@H](Cc1ccc(O)cc1)NC(=O)[C@@H](N)CC(C)C)C(=O)N[C@H](C(=O)N[C@@H](CS)C(=O)NCC(=O)N[C@@H](CCC(=O)O)C(=O)N[C@@H](CCCNC(=N)N)C(=O)NCC(=O)N[C@@H](Cc1ccccc1)C(=O)O)C(C)C` [reference compound]: the values for the IC50 at HLA-A*24:02 and at HLA-A*02:01 (setting [3]) were 5250 nM and 13400 nM, respectively.

In the case of GERGFFYT, the IC50 was over 40000 nM at HLA-A*01:01 and 1.38 µM at HLA-B*08:01.

Take FYTPKTRRE [reference compound]: the IC50 on HLA-B*08:01 was 13 µM; on HLA-A*02:01 (setting [2]) it was over 40000 nM.

The molecule PLALEGSLQK yielded an IC50 on HLA-A*03:01 of over 40000 nM.

For GSHLVEALY [reference compound], the IC50 was 30300 nM at HLA-A*01:01 and 3960 nM at HLA-A*02:01 (setting [3]).

Consider APVIKARMM, for which the IC50 at HLA-B*07:02 was determined as 18200 nM.

With SASVQRADTSL, the IC50 on HLA-B*07:02 worked out at 11 nM.

For LWMRLLPLL [reference compound], the IC50 came to 545 nM at HLA-A*24:02 and 266 nM at HLA-A*02:01 (setting [3]).

As to RFKMFPEVK, at HLA-A*11:01, the IC50 was 18300 nM.

With SLQPLALEG [reference compound], the IC50 on HLA-A*02:01 (setting [1]) and at HLA-A*03:01 (setting [4]) was over 40000 nM throughout.

For ALYLVCGER, the IC50 on HLA-A*11:01 stood at 28300 nM; at HLA-A*02:01 it was 1790 nM; at HLA-A*03:01 it was 2790 nM.

For the molecule ERGFFYTPK [reference compound], the IC50 at HLA-A*02:01 (setting [2]) and on HLA-A*03:01 (setting [4]) was over 40000 nM each time.

On to `CC(C)C[C@H](NC(=O)[C@H](CCC(N)=O)NC(=O)[C@H](CC(N)=O)NC(=O)[C@H](Cc1ccccc1)NC(=O)[C@H](Cc1ccc(O)cc1)NC(=O)[C@H](CCCNC(=N)N)NC(=O)[C@@H]1CCCN1C(=O)[C@@H](N)Cc1c[nH]cn1)C(=O)N[C@@H](CO)C(=O)N[C@H](C(=O)O)[C@@H](C)O`, for which, at HLA-B*07:02, the IC50 stood at 1250 nM.

Take PLLALLALWG: the IC50 at HLA-A*03:01 (setting [4]) was over 40000 nM.

As to ALWGPDPAAAF, the IC50 on HLA-A*24:02 was 15100 nM; at HLA-A*01:01 it was over 40000 nM.

Regarding “WMRLLPLLAL [WMRLLPLLAL, reference compound]”, the IC50 at HLA-B*07:02 was 2360 nM; at HLA-A*02:01, 654 nM.

Turning to ALWMRLLPLL, the IC50 is 6180 nM on HLA-A*24:02, 0.033 µM on HLA-B*08:01 and 190 nM on HLA-A*02:01 (setting [1]).

For LVCGERGFFY, the IC50 at HLA-A*01:01 was over 40000 nM; on HLA-A*11:01, 27200 nM; on HLA-A*02:01 (setting [3]), 23200 nM; on HLA-A*03:01 (setting [4]), 27400 nM.

Regarding IPSDLERRIL, the IC50 on HLA-B*07:02 amounted to 3860 nM.

On to TSEHSHFSL, for which the IC50 on HLA-B*35:01 was over 40000 nM.

As for `CC(C)C[C@H](N)C(=O)N[C@H](C(=O)N[C@@H](CS)C(=O)NCC(=O)N[C@@H](CCC(=O)O)C(=O)N[C@@H](CCCNC(N)=O)C(=O)NCC(=O)N[C@@H](Cc1ccccc1)C(=O)N[C@@H](Cc1ccccc1)C(=O)O)C(C)C` (H-LVCGE[Cit]GFF-OH; N-terminus and C-terminus assumed), the IC50 on HLA-A*02:01 (setting [5]) is over 40000 nM.

Turning to `CC(C)C[C@H](NC(=O)[C@H](CO)NC(=O)CNC(=O)[C@H](CCC(=O)O)NC(=O)[C@@H](N)CC(C)C)C(=O)N[C@@H](CCC(N)=O)C(=O)N[C@@H](CCCCN)C(=O)N[C@@H](CCCNC(N)=O)C(=O)NCC(=O)O` (H-LEGSLQK[Cit]G-OH; N-terminus and C-terminus assumed), the IC50 at HLA-A*02:01 (setting [5]) was over 40000 nM.

In the case of LWMRLLPLLA, the IC50 on HLA-A*02:01 (unmodified (wild type) insulin-derived peptide, radiolabeled ligand competition, purified MHC, two-day incubation, three or more independent experiments, read-out: A*02:01 binding, WT) turned out to be 406 nM.

For RLLPLLALLA, the IC50 on HLA-A*02:01 (setting [3]) turned out to be 11 nM.

Turning to WGPDPAAA [reference compound], the IC50 on HLA-A*02:01 (setting [1]) was over 40000 nM.

As to PKTRREAEDL, the IC50 at HLA-A*02:01 (setting [2]) was over 40000 nM.

As to FVNQHLCGSH, the IC50 at HLA-A*02:01 (setting [3]) was found to be 13200 nM.

Regarding RMMEYGTTMV [reference compound], the IC50 on HLA-A*02:01 (setting [1]) amounted to 709 nM.

With `CC(C)C[C@H](NC(=O)[C@H](Cc1c[nH]cn1)NC(=O)[C@H](CO)NC(=O)CNC(=O)[C@H](CS(=O)(=O)O)NC(=O)[C@H](CC(C)C)NC(=O)[C@H](Cc1c[nH]cn1)NC(=O)[C@H](CCC(N)=O)NC(=O)[C@H](CC(N)=O)NC(=O)[C@@H](N)C(C)C)C(=O)O` [VNQHLBGSHL] (H-VNQHL[Cya]GSHL-OH; N-terminus and C-terminus assumed), on HLA-A*02:01 (setting [5]), the IC50 is over 40000 nM.

Consider REAEDLQVGQ, for which the IC50 on HLA-A*02:01 (setting [3]) was 23700 nM.
